Source: paper PMC4055737, “Forward Genetic Screening Identifies a Small Molecule That Blocks Toxoplasma gondii Growth by Inhibiting Both Host- and Parasite-Encoded Kinases” (PLoS Pathogens, 2014)
Where a name gives a salt, the structure may show the parent alone.

Molecular target: T1, TgMAPK1 (Toxoplasma gondii, UniProt S8EUF0)
T1 construct: gene MAPKL1; full-length, endogenously C-terminally 3×HA-tagged TgMAPK1 (TGGT1_312570), immunoprecipitated from RH strain tachyzoite lysates
Experiment: in vitro autokinase assay (γ[…]-ATP) on anti-HA immunoprecipitated kinase, dose response
Type: biochemical

T1 sequence (S8EUF0 whole entry): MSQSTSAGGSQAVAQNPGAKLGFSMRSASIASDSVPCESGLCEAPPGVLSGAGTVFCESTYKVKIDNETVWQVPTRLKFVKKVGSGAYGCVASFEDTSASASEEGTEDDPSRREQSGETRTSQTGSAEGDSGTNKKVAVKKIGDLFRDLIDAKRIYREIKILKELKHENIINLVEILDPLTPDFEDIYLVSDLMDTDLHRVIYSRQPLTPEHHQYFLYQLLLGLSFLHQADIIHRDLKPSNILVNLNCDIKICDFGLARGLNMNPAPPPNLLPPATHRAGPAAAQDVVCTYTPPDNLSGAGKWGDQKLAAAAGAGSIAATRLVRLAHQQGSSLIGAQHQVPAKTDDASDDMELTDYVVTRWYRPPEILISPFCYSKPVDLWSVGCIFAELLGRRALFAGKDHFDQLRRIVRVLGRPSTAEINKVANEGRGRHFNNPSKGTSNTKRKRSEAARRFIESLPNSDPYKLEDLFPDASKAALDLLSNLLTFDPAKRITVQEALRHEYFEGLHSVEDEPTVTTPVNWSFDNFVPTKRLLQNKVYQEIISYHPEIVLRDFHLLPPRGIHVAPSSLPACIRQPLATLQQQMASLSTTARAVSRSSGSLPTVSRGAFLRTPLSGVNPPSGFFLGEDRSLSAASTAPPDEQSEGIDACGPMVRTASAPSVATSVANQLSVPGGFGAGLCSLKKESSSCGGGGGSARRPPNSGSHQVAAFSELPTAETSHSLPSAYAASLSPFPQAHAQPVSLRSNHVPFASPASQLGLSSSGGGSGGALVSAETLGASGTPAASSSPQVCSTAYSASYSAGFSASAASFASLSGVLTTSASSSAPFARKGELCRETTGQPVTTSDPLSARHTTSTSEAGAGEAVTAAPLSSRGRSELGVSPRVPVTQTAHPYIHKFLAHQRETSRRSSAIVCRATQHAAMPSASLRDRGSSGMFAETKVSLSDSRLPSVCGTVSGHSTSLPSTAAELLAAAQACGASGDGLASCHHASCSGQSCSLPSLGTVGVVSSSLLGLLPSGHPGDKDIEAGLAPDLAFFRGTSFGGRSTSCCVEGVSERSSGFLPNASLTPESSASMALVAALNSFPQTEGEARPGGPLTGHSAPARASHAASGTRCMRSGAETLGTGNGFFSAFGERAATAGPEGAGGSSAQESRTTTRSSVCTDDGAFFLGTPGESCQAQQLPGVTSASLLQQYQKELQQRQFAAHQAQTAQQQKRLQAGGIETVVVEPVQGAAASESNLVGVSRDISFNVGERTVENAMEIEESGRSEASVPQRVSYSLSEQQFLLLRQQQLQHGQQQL

For Cc1cccc(-c2[nH]c(C(C)(C)C)nc2-c2ccc3c(c2)OCO3)n1 [SB505124, 2-(5-benzo[1,3]dioxol-5-yl-2-tert-butyl-3H-imidazol-4-yl)-6-methylpyridine hydrochloride], the IC50 was 125 nM.
